The record followed here is article PMC7645381, “Development and application of a high-throughput screening assay for identification of small molecule inhibitors of the P. falciparum reticulocyte binding-like homologue 5 protein” (International Journal for Parasitology: Drugs and Drug …, 2020).

As a reminder, the inhibition is the percentage by which the read-out fell short of the control. As a reminder, the IC50 is the concentration needed to halve the response being measured. Low values mean greater potency, high ones weaker potency.

Assay in all cases: biochemical
Test [1] concerns the target T1, P. falciparum Rh5 (Rh5 – basigin interaction) (Plasmodium falciparum, UniProt Q8IFM5). Also on record: AlphaScreen of Rh5 - His-tagged basigin interaction with anti-Rh5 mAb beads; inhibition of luminescence signal. The settings on record: primary pilot screen, single point; for % Inhibition Pilot: 20 µM, inhibitor. The procedure:
Using the Combi-multidrop, 5 μL of Rh5 stock solution (200 nM prepared in assay buffer) was added to columns 1–24 of the 384-well assay plate (Greiner 384-well white, low binding plate, #784904, Bioone). The PerkinElmer Janus automated dispensing system was then employed to transfer, via the pin-tool, 2 × 100 nL of the compound stock DMSO solution from the compound master plate to the assay plate. The plate was sealed and incubated for 30 min at room temperature. Using a Combi-multidrop, 5 μL of hexa-histidine tagged basigin stock solution (80 nM prepared in assay buffer) was then added to columns 1–23 and 5 μL assay buffer to column 24 of the 384-well assay plate. The plate was sealed again and incubated for 30 min at room temperature. A solution of AlphaScreen donor and acceptor beads (20 μg/mL prepared in assay buffer) plus anti-Rh5 mAb solution (2 μg/mL prepared in assay buffer) was prepared in assay buffer under subdued lighting. Using the Combi-multidrop, 10 μL of this solution was added to every well of the assay plate under subdued lighting. The plate was sealed with foil (plate max) and incubated at room temperature for 1 h. The assay plate was then analysed on the PerkinElmer Envision 2103 Multilabel Plate Reader (Ex 680, Em 520–620 nm). The optimised Rh5 AlphaScreen assay was then validated for HT screening purposes by conducting a pilot screen using known drug library (from Prestwick, Tocris and LOPAC) and the MMV Malaria Box, comprising 3708 and 400 compounds (Fig. 1), respectively. Historically, PPIs are notoriously difficult to target with small molecules. To enhance the likelihood of identifying an inhibitor of the Rh5 - basigin interaction the primary screen was conducted at a compound concentration of 20 μM. A 20 μM screening concentration is considered high, when compared to the commonly used primary screen concentrations of approximately 1–10 μM. To follow-up on hit compounds from the pilot validation screen, we next wanted to confirm the activity of the primary hits. To do this, a two-phase hit confirmation and counterscreen process was undertaken (Fig. 1). In the first phase, the 231 primary hits from both libraries were evaluated in the Rh5 AlphaScreen assay and counterscreen assay. Both assays were undertaken at 10 μM in duplicate. The counterscreen assay was conducted using AlphaScreen TruHits. […] The 45 secondary hits can be viewed in the top left quadrant of Fig. S8. Of the 45 hits, 13 compounds originated from the Malaria Box and 32 compounds from the known drug library.

Test [2] has as its target T1, P. falciparum Rh5 (Rh5 – basigin interaction). Also on record: AlphaScreen of Rh5 - His-tagged basigin interaction with anti-Rh5 mAb beads; inhibition of luminescence signal. The settings on record: confirmation screen, duplicate; for % Inhibition Confirmation: 10 µM, inhibitor. The procedure: Using the Combi-multidrop, 5 μL of Rh5 stock solution (200 nM prepared in assay buffer) was added to columns 1–24 of the 384-well assay plate (Greiner 384-well white, low binding plate, #784904, Bioone). The PerkinElmer Janus automated dispensing system was then employed to transfer, via the pin-tool, 2 × 100 nL of the compound stock DMSO solution from the compound master plate to the assay plate. The plate was sealed and incubated for 30 min at room temperature. Using a Combi-multidrop, 5 μL of hexa-histidine tagged basigin stock solution (80 nM prepared in assay buffer) was then added to columns 1–23 and 5 μL assay buffer to column 24 of the 384-well assay plate. The plate was sealed again and incubated for 30 min at room temperature. A solution of AlphaScreen donor and acceptor beads (20 μg/mL prepared in assay buffer) plus anti-Rh5 mAb solution (2 μg/mL prepared in assay buffer) was prepared in assay buffer under subdued lighting. Using the Combi-multidrop, 10 μL of this solution was added to every well of the assay plate under subdued lighting. The plate was sealed with foil (plate max) and incubated at room temperature for 1 h. The assay plate was then analysed on the PerkinElmer Envision 2103 Multilabel Plate Reader (Ex 680, Em 520–620 nm). […] Historically, PPIs are notoriously difficult to target with small molecules. To enhance the likelihood of identifying an inhibitor of the Rh5 - basigin interaction the primary screen was conducted at a compound concentration of 20 μM. A 20 μM screening concentration is considered high, when compared to the commonly used primary screen concentrations of approximately 1–10 μM. […] To do this, a two-phase hit confirmation and counterscreen process was undertaken (Fig. 1). […] Both assays were undertaken at 10 μM in duplicate. The counterscreen assay was conducted using AlphaScreen TruHits.

The target is the same in test [3]. It is filed as binding. Particulars: for Rh5 inhibitory activity in the AlphaScreen assay: highest concentration tested 50 μM. Background: Bead proximity is the source of the signal in Alpha formats.

Counter-ions that a name gives are not always drawn.

T1 sequence (Q8IFM5 24-526): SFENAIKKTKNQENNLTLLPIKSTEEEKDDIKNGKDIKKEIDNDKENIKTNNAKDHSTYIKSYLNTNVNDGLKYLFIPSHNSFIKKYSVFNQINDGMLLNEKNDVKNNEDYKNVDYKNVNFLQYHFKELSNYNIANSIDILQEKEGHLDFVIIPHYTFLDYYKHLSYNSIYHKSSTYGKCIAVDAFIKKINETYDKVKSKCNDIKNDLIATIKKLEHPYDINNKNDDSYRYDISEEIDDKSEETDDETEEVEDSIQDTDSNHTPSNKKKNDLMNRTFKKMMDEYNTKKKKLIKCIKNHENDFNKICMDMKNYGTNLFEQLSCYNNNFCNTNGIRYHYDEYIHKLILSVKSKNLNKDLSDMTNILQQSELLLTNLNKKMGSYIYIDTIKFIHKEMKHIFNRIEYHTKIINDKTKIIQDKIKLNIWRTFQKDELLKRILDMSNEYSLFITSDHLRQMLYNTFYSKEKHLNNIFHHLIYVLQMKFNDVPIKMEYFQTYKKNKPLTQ

`NC(Cc1cc(O)c(O)cc1O)C(=O)O` (racemic) [WEHI-1215200, 6-Hydroxy-DL-DOPA] yielded an inhibition at 20 µM in test [1] (Batch Reference=01) of 69.7%. Also, the inhibition at 10 µM in test [2] (Batch Reference=01) worked out at 80.7%.
Consider `CC(=O)N1CCN(c2ccc(OC[C@@H]3CO[C@@](Cn4ccnc4)(c4ccc(Cl)cc4Cl)O3)cc2)CC1` (racemic) [WEHI-1215227, Ketoconazole], for which, in test [1] (Batch Reference=02), the inhibition at 20 µM came to 58.3%.
In turn, `CCOC(=O)c1cc(=O)c2cccc(NC(=O)c3ccc(OCc4ccccc4)cc3)c2o1` [Compound 11, Ethyl 8-(4-(benzyloxy)benzamido)-4-oxo-4H-chromene-2-carboxylate] returned an IC50 in test [3] of more than 50 µM.
In the case of `CCOC(=O)c1cc(=O)c2cccc(NC(=O)c3ccc(OCCc4ccccc4)cc3)c2o1` [Compound 12, Ethyl 4-oxo-8-(4-phenethoxybenzamido)-4H-chromene-2-carboxylate], the IC50 in test [3] was more than 50 µM.
In test [3], `CCOC(=O)c1cc(=O)c2cccc(NC(=O)c3ccc(OCCCCc4ccccc4)cc3)c2o1` [Compound 14, Ethyl 4-oxo-8-(4-(4-phenylbutoxy)benzamido)-4H-chromene-2-carboxylate] displayed a half-maximal inhibitory concentration (IC50) of more than 50 µM.
For `O=C(Nc1cccc2c(=O)cc(C(=O)O)oc12)c1ccc(OCc2ccccc2)cc1` [Compound 15, 8-(4-(Benzyloxy)benzamido)-4-oxo-4H-chromene-2-carboxylic acid], in test [3], the IC50 is more than 50 µM and the “Rh5 inhibitory activity in the AlphaScreen assay” value (shortened to “Rh5 inhibitory activity”) was “No activity”.
Molecule `CCOC(=O)c1cc(=O)c2cccc(NC(=O)c3ccc(OC)cc3)c2o1` [Compound 20, Ethyl 8-(4-methoxybenzamido)-4-oxo-4H-chromene-2-carboxylate] returned an IC50 in test [3] of more than 50 µM.
For `CN(C)C(=O)CCSC(SCCC(=O)O)c1cccc(/C=C/c2ccc3ccc(Cl)cc3n2)c1` (stereo not shown) [MK 571, reference compound], the “Rh5 inhibitory activity” value in test [3] was “did not show Rh5 inhibitory activity”.
Still for that read-out and setting: for `Br.CN1CCc2cc(O)cc3c2[C@H]1Cc1ccc(O)c(O)c1-3` [R(-)-2,10,11-trihydroxyaporphine, reference compound] the value was “not active”; for `CN1CCc2cccc3c2[C@H]1Cc1ccc(O)c(O)c1-3` [R(-)-apomorphine, reference compound], “not active”.
On to `CCCN1CCc2cccc3c2[C@H]1Cc1ccc(O)c(O)c1-3` [R(-)-propylnorapomorphine, reference compound], for which the “Rh5 inhibitory activity” value in test [3] is “not active”.
For `COC(=O)C1=C(C)NC(C)=C(C(=O)OC)C1c1ccccc1[N+](=O)[O-]` [WEHI-0104145, Nifedipine], the inhibition at 20 µM worked out at 55.3% in test [1] (Batch Reference=02) and 57.3% in test [1] (Batch Reference=03). Further, the inhibition at 10 µM in test [2] (Batch Reference=02) amounted to 81.1%; in test [2] (Batch Reference=03), 75.7%.
As to `CN1CCc2cccc3c2[C@H]1Cc1ccc(O)c(O)c1-3` [WEHI-1214737, Apomorphine hydrochloride hemihydrate], the “% Inhibition Pilot” value in test [1] (Batch Reference=01) was 62.755%. The “% Inhibition Confirmation” value in test [2] (Batch Reference=01) is 72.2885%.
Take `CCCN1CCc2cccc3c2[C@H]1Cc1ccc(O)c(O)c1-3` [WEHI-1215034, R(-)-Propylnorapomorphine hydrochloride]: in test [1] (Batch Reference=01), the inhibition at 20 µM came to 83%. In test [2] (Batch Reference=01), the inhibition at 10 µM turned out to be 84.9%.
In test [1] (Batch Reference=01), `CN1CCc2cc(O)cc3c2[C@H]1Cc1ccc(O)c(O)c1-3` [WEHI-1215043, R(-)-2,10,11-Trihydroxyaporphine hybrobromide] showed an inhibition at 20 µM of 62.6%. The molecule further registered an inhibition at 10 µM in test [2] (Batch Reference=01) of 84.7%.
`CCCN1CCc2cc(O)cc3c2[C@H]1Cc1ccc(O)c(O)c1-3` [WEHI-1215052, R(-)-2,10,11-Trihydroxy-N-propylnoraporphine hydrobromide] came in with an inhibition at 20 µM in test [1] (Batch Reference=01) of 69.8%. Moreover, the inhibition at 10 µM in test [2] (Batch Reference=01) was 87.2%.
As to `CC#C[C@]1(O)CC[C@H]2[C@@H]3CCC4=CC(=O)CCC4=C3[C@@H](c3ccc(N(C)C)cc3)C[C@@]21C` [WEHI-1215337, Mifepristone], the inhibition at 20 µM in test [1] (Batch Reference=01) stood at 75.3%; in test [1] (Batch Reference=03), 76.6%. Also, the inhibition at 10 µM in test [2] (Batch Reference=01) stood at 91.7%; in test [2] (Batch Reference=03), 96.5%.
Molecule `C[n+]1cc2c3c(ccc2c2ccc4cc5c(cc4c21)OCO5)OCO3` [WEHI-1215580, Sanguinarine chloride] had an inhibition at 20 µM in test [1] (Batch Reference=01) of 70.3%. The same molecule came in with an inhibition at 10 µM in test [2] (Batch Reference=01) of 99%.
As to `O=C(O)Cc1cccc(OCCCN(Cc2cccc(C(F)(F)F)c2Cl)CC(c2ccccc2)c2ccccc2)c1` [WEHI-1216231, GW 3965 hydrochloride], in test [1] (Batch Reference=01), the inhibition at 20 µM was 57.8%. The same molecule registered an inhibition at 10 µM in test [2] (Batch Reference=01) of 51.1%.
For the molecule `CN1CCc2cccc3c2[C@H]1Cc1ccc(O)c(O)c1-3` [WEHI-1216442, (R)-(-)-Apomorphine hydrochloride], the inhibition at 20 µM in test [1] (Batch Reference=01) is 70.8%. In addition, the inhibition at 10 µM in test [2] (Batch Reference=01) amounted to 76.5%.
Taken in the same sequence, the figures for `O=C1C=CC(=O)c2c1ccc1c2ccc2ccccc21` [WEHI-1216729, Chrysene-1,4-quinone] were 56.6% and 71%.
Taken in the same sequence, the figures for `CC[N+](C)(CC)CCC[n+]1c(-c2ccccc2)c2cc(N)ccc2c2ccc(N)cc21` [WEHI-1216760, Propidium iodide] were 55.7% and 77%.
Taken in the same sequence, the figures for `NCCNCCNCCNCCN` [WEHI-1217021, Tetraethylenepentamine pentahydrochloride] were 96.2% and 96.9%.
As to `CN1CCc2cccc3c2[C@H]1Cc1ccc(O)c(O)c1-3` [WEHI-1217165, R(-) Apomorphine hydrochloride hemihydrate], the “% Inhibition Pilot” value in test [1] (Batch Reference=01) was 61.89%. In test [2] (Batch Reference=01), the “% Inhibition Confirmation” value is reported as 62.575%.
Take `COCCCOc1ccnc(C[S+]([O-])c2nc3ccccc3[nH]2)c1C` (stereo not shown) [rabeprazole, reference compound]: the “Rh5 inhibitory activity” value in test [3] was “not active”.
`COCCCOc1ccnc(C[S+]([O-])c2nc3ccccc3[nH]2)c1C` (stereo not shown) [rabeprazole] gave an inhibition at 20 µM in test [1] (Batch Reference=01) of 59.6%. In addition, the inhibition at 10 µM in test [2] (Batch Reference=01) was 68%.
